Reference: patent publication US20240287042A1, “NOVEL COMPOUND HAVING INHIBITORY ACTIVITY AGAINST PENDRIN, AND PHARMACEUTICAL USES THEREOF” (UIF (University Industry Foundation), Yonsei University, priority 2021, published 2024)

How the values were obtained:
Assay type in all cases: in vivo, C57BL/6N mice
[1] = test system: LPS-induced acute lung injury model; test: LPS-induced acute lung injury model, i.p. pre- and post-treatment; details: vs vehicle-treated LPS mice
Procedure: Wild-type male C57BL/6N mice aged 8 to 10 weeks and weighing 20-24 g were purchased from Orient Bio (Seongnam, South Korea). […] Specifically, LPS (Escherichia coli, 0111: B4, Sigma) (10 μg/g) dissolved in 50 μL PBS was administered by intranasal (i.n.) inhalation. The control group received 50 μL of sterile PBS through intranasal administration. For pretreatment, YPI-A4948 dissolved in 50 μL DMSO was administered intraperitoneally (i.p) at 0.1 mg/kg, 1.0 mg/kg and 10 mg/kg, respectively, 1 hour before LPS inhalation, and for post-treatment, YPI-A4948 was administered at 0.1 mg/kg, 1.0 mg/kg, and 10 mg/kg, respectively, 12 hours after LPS inhalation. The vehicle control group was intraperitoneally administered with 50 μL DMSO at the same time point as pretreatment and post-treatment. Mice were euthanized 48 hours after LPS inhalation to remove the lungs. In addition, BALF cytospin staining and H&E lung tissue staining were performed to observe the degree of lung injury.

[2] = test system: Adriamycin-induced heart failure mouse model; test: Diuretic effect in Adriamycin-induced heart failure mouse model; details: heart failure mice
Procedure: Wild-type male C57BL/6N mice aged 8 weeks and weighing 20-24 g were purchased from Orient Bio (Seongnam, South Korea). Cardiac ultrasound imaging was performed before administration of Adriamycin. […] Five weeks later, cardiac ultrasound imaging was performed to confirm whether heart failure had been induced.
A 100 mg/ml stock concentration of YPI-A4948 dissolved in DMSO was prepared to have final concentrations of 0.1 mg/kg/100 ul, 0.5 mg/kg/100 ul and 1 mg/kg/100 ul (1% DMSO+DW), respectively. Heart failure mice were placed in mouse metabolic cages, and water and food were restricted. Before administering YPI-A4948, the bladder of the mouse was stimulated, and YPI-A4948 was injected intraperitoneally alone for two times in total, once every 3 hours for 6 hours. In other groups, it was administered with furosemide at 0.5 mg/kg and 1 mg/kg, respectively, in order to confirm the co-administration effect with other diuretics. Urine was collected from each group of mice after 6 hours.

[3] = test system: LPS-induced lung injury model; test: LPS-induced lung injury model in mice, i.v. treatment after LPS
Procedure: Lipid polysaccharide (LPS, 200 μg/head) dissolved in 50 μL PBS was injected intranasally into C57BL/6N mice. YPI-A4948 (1, 10 μg/kg) was administered intravenously twice in total at 6 hours and 12 hours after LPS injection, and the mice were euthanized at 24 hours after LPS inhalation to remove the lungs. Immune cell recruitment was confirmed through bronchoalveolar lavage fluid (BALF) obtained by injecting 1 mL of PBS into the removed lung and then re-extracting the PBS. Lung injury parameters were measured by ELISA after lysing lung tissue. The expression level of pendrin protein was confirmed by Western blot, and this was digitalized and measured using a shade measuring instrument (mean±SEM, n=3 per group). Pendrin mRNA levels were determined by real-time quantitative PCR in extracted lung tissue (mean±SEM, n=3 per group). IL-10, MIP-2, IL-6, and TNF-α levels were measured by ELISA in lung tissue lysates (mean±SEM n=4-7 mice per group).

[4] = i.p. 0.1, 1.0, 10 mg/kg 1 h before and 12 h after LPS
[5] = i.v. 1, 10 μg/kg at 6 and 12 h after LPS, vs LPS only

For `Cc1ccc2[nH]c(C(=O)O)c(CC(=O)N3CCN(c4c(C)cccc4Cl)CC3)c2c1` [YPI-A4948, 3-(2-(4-(2-Chloro-6-methylphenyl)piperazin-1-yl)-2-oxoethyl)-5-methyl-1H-indole-2-carboxylic acid], the BALF protein concentration [1, 4] was “significantly reduced”, the “BALF total cell counts” value [1, 4] was “significantly reduced” and the “Lung injury (BALF cytospin and H&E lung tissue staining)” value ([1]; i.p. before and after LPS) was “significantly reduced”. The “Diuretic effect, co-administered with furosemide” value ([2]; 0.5 mg/kg YPI-A4948 and 1.0 mg/kg furosemide) was “additive effect”, the “Diuretic effect, administered alone” value ([2]; 1 mg/kg i.p. twice in 6 hours) was “showed a diuretic effect” and the “Lung inflammatory cytokine IL-6” value ([3]; ELISA in lung tissue lysates) was “statistically significantly reduced”. The “Lung inflammatory cytokine IL-10” value ([3]; ELISA in lung tissue lysates) was “statistically significantly reduced”, the “Lung inflammatory cytokine MIP-2” value ([3]; ELISA in lung tissue lysates) was “statistically significantly reduced” and the “Lung inflammatory cytokine TNF-α” value ([3]; ELISA in lung tissue lysates) was “statistically significantly reduced”. For the same molecule, the BALF protein concentration [3, 5] was “significantly reduced”, the “BALF total cell counts” value [3, 5] was “significantly reduced” and the “Level of pendrin mRNA in lung” value [3, 5] was “significantly reduced”. For the same molecule, the “Level of pendrin protein in lung” value [3, 5] was “significantly reduced”.
